Laboratory results taken from patent US11666551B2, “Agent for reducing amount of amyloid β protein” (FUJIFILM Toyama Chemical Co., Ltd., priority 2017, dated 2023).

Experiments:
Format in all cases: in vivo, mild to moderate AD patients
[1] = system: Aβ-38; test: Phase II placebo-controlled trial, cerebrospinal fluid biomarker Aβ-38; conditions: for Change in Aβ-38 in CSF at week 52, difference from placebo group: analysis of covariance
From the text: [The procedure below names another target; the source lists this target under the same test.] (§1) Maleate of Compound A was used as the test compound. • Test Example 1 Multicenter randomized double-blind phase II placebo-controlled trial for assessing effectiveness and safety of Compound A in mild to moderate AD patients Subject (selection criteria): Patients were screened in a period from 42 days before treatment assignment to the assignment based on the following selection criteria. • Patients who were probable AD and are 55 years old or older and 85 years old or younger at the time of obtaining consent of screening. • Patients with an MMSE score of 12 to 22 at the time of screening • Patients with a Modified Hachinski Ischemia Scale score of 4 or less • Patients who have been treated with a donepezil hydrochloride or rivastigmine transdermal system for at least 4 months before the baseline and with a stable dose thereof for 3 months before the baseline. • In the case of patients who have received memantine in addition to being treated with a donepezil hydrochloride or rivastigmine transdermal system, patients who have been treated with memantine for at least 4 months before the baseline and with a stable dose thereof for 3 months before the baseline. • Patients whose brain MRI or CT results match AD at the time of screening • Organization of groups: Patients matched (484 patients) were randomly divided into the following 3 groups and the trial was started. • (1) High dose group: 224 mg of a test compound (160 mg in terms of Compound A) was orally administered once a day for 4 weeks and then 448 mg of a test compound (320 mg in terms of Compound A) was orally administered once a day for 48 weeks (158 patients) • (2) Low dose group: 224 mg of a test compound (160 mg in terms of Compound A) was orally administered once a day for 52 weeks (166 patients) • (3) Placebo group: placebo was orally administered once a day for 52 weeks (158 patients) Method of assessment: Cerebrospinal Fluid Biomarker
(§2) Cerebrospinal fluid was collected by lumber puncture from subjects at baseline (within 2 weeks before the first day of administration of investigational drug) and after 52 weeks (within 2 weeks before week 52), and divided into 9-ml aliquots in polyethylene tubes and stored at −80° C. The AP-42 value in the cerebrospinal fluid was measured by sandwich ELIZA which has been designed for measurement of Aβ including 1 amino acid and 42 amino acids.
(§3) Change in cerebrospinal fluid (CSF) biomarkers at week 52 from the baseline was compared by analysis of covariance between a high dose group and a placebo group, and between a low dose group and the placebo group. For models, the baseline of cerebrospinal fluid (CSF) biomarkers was included as a covariate and the significance level was 5%.

[2] = system: Aβ-40; test: Phase II placebo-controlled trial, cerebrospinal fluid biomarker Aβ-40; conditions: for Change in Aβ-40 in CSF at week 52, difference from placebo group: analysis of covariance
From the text: [The procedure below names another target; the source lists this target under the same test.] as §1, §2, §3

[3] = system: Aβ-42; test: Phase II placebo-controlled trial, cerebrospinal fluid biomarker Aβ-42; conditions: for Change in Aβ-42 in CSF at week 52, difference from placebo group: analysis of covariance
From the text: as §1, §2, §3

[4] = system: Aβ; test: Phase II placebo-controlled trial, concentration of Aβ in the cerebrospinal fluid (overall statement); conditions: Compound A groups (high and low dose) vs placebo group
Protocol: […]
as §2, with “acids. […]” for “acids.”

[5] = High dose group (160 mg then 320 mg in terms of Compound A, oral, once a day)
[6] = High dose group: 160 mg in terms of Compound A orally once a day for 4 weeks, then 320 mg for 48 weeks, 24 cases
[7] = Low dose group (160 mg in terms of Compound A, oral, once a day, 52 weeks)
[8] = Low dose group: 160 mg in terms of Compound A orally once a day for 52 weeks, 17 cases

`OC1CN(CCCOCCc2ccc3sccc3c2)C1` [Compound A, 1-(3-(2-(1-benzothiophen-5-yl)ethoxy)propyl)azetidin-3-ol] was tested, and the “Change in Aβ-38 in CSF at week 52, difference from placebo group” value [1, 5] was 525.66 pg/mL, the “Change in concentration of Aβ-38 in CSF at week 52 from the baseline, least square means” value [1, 6] was 178.64 pg/mL and the “Change in Aβ-38 in CSF at week 52, difference from placebo group” value [1, 7] was 127.43 pg/mL. The “Change in concentration of Aβ-38 in CSF at week 52 from the baseline, least square means” value [1, 8] was -219.58 pg/mL, the “Change in Aβ-40 in CSF at week 52, difference from placebo group” value [2, 5] was 1206.87 pg/mL and the “Change in concentration of Aβ-40 in CSF at week 52 from the baseline, least square means” value [2, 6] was 290.84 pg/mL. For the same molecule, the “Change in Aβ-40 in CSF at week 52, difference from placebo group” value [2, 7] was 75.71 pg/mL, the “Change in concentration of Aβ-40 in CSF at week 52 from the baseline, least square means” value [2, 8] was -840.32 pg/mL and the “Change in Aβ-42 in CSF at week 52, difference from placebo group” value [3, 5] was 32.90 pg/mL. For the same molecule, the “Change in concentration of Aβ-42 in CSF at week 52 from the baseline, least square means” value [3, 6] was 11.55 pg/mL, the “Change in Aβ-42 in CSF at week 52, difference from placebo group” value [3, 7] was 11.65 pg/mL and the “Change in concentration of Aβ-42 in CSF at week 52 from the baseline, least square means” value [3, 8] was -9.70 pg/mL. The “Change in the concentration of Aβ in the cerebrospinal fluid at week 52 from the baseline, compared to the placebo group” value [4] was “tended to be increased in a dose dependent manner”.
